According to US8809331B2 (Genentech, Inc., priority 2011, dated 2014):

target: T1, LRRK2 (Homo sapiens, UniProt Q5S007, G2019S); test: In Vitro LRRK2 LabChip Assay (LRRK2 Ki); format: biochemical; conditions: Table 5 compounds (formula I)
T1 construct: purchased Invitrogen PV4882
Protocol: In Vitro LRRK2 LabChip Assay
This assay was used to determine a compound's potency in inhibiting activity of LRRK2 by determining, Kiapp, IC50, or percent inhibition values. In a polypropylene plate, LRRK2, fluorescently-labeled peptide substrate, ATP and test compound were incubated together. Using a LabChip 3000 (Caliper Life Sciences), after the reaction the substrate was separated by capillary electrophoresis into two populations: phosphorylated and unphosphorylated. The relative amounts of each were quantitated by fluorescence intensity. LRRK2 Ki was determined according to the equation: Y=V0*(1−((x+Ki*(1+S/Km)+Et)/(2*Et)−(((x+Ki*(1+S/Km)+Et)^2−(4*Et*x))^0.5)/(2*Et))). Ki values in Table 4 and elsewhere herein are shown in μM.
Assay conditions and materials used were as follows:
LRRK2 Wild type in 5 mM MgCl2: 15 nM (Invitrogen lot #500607F)
Kinase reaction time: 2 hours
Wild type in 5 mM MgCl2: 80 μM
Solid Support: Black 50 μL volume polypropylene 384 well plate (MatriCal cat # MP101-1-PP)
Kinase: LRRK2 G2019S (Invitrogen cat #PV4882). • LRRK2 Wild type (Invitrogen cat #PV4874).
Substrate: 5FAM-[…]-CONH2
Non-binding plate: 384 well clear V-bottom polypropylene plates (Greiner cat #781280).
ATP: 10 mM ATP (Cell Signaling cat #9804).
Coating Reagent #3: Coating Reagent #3 (Caliper).
Complete Reaction Buffer: H2O/25 mM Tris, pH 8.0/5 mM MgCl2/2 mM DTT/0.01% Triton X-100.
Stop Solution: H2O/100 mM HEPES, pH 7.2/0.015% Brij-35/0.2% Coating Reagent #3/20 mM EDTA.
Separation Buffer: H2O/100 mM HEPES, pH 7.2/0.015% Brij-35/0.1% Coating Reagent #3/1:200 Coating Reagent #8/10 mM EDTA/5% DMSO.
Compound Plate Preparation:
For serial dilutions, 34.6 μl DMSO was added to columns 3-24. For the assay controls, 37.5 μl DMSO was added to columns 1 and 2 of rows A and P. a, d and 50 μl 25 μM G-028831 (Staurosporine) was added to columns 1 and 2, row B. For the samples: to start at 100 μM, 37.5 μl DMSO was to columns 1 and 2, then 12.5 μl 10 mM compound; to start at 10 μM, 78 μl DMSO was added to columns 1 & 2, then 2 μl 10 mM compound; and to start at 1 μM, 25 μM compound (2 μl 10 mM cmpd+798 μl DMSO) was added to empty columns 1 and 2. A Precision instrument was used to perform 1:3.16 serial dilutions (“PLK_BM_serial_halflog”).
ATP was diluted to 282.1 μM in Complete Kinase Buffer (final concentration was 130 μM).
Total and Blank Preparation:
In Complete Reaction Buffer, substrate was diluted to 4 μM. Equal volumes of Complete Reaction Buffer and 4 μM substrate were combined to obtain the blank. Equal volumes of Complete Reaction Buffer and 4 μM substrate were combined and to the combined solution was added 2× final LRRK2 concentration.
To a 50 μl polypropylene plate, 5 μl/well buffer/substrate was added by hand to Blank wells. A Biomek FX was used to start the kinase reaction (“PLK SAR 23 ATP”). The following were added to the appropriate wells:
5 μl/well compound/ATP in Assay Plate;
5 μl/well kinase/substrate in Assay Plate;
The plate was incubated for 2 hours in the dark. Biomek FX was used to stop the kinase reaction (“PLK Stop”), and 10 μl/well Stop solution was added to the Assay Plate. Results were read on the LabChip 3000.
The LabChip 3000 was run using the job “LRRK2 IC50” with the following job settings:
Downstream voltage: −500 V
Upstream voltage: −2350 V
Post sample buffer sip time: 75 seconds
Post dye buffer sip time: 75 seconds
Final delay time: 200 seconds

T1 sequence (Q5S007 whole entry G2019S): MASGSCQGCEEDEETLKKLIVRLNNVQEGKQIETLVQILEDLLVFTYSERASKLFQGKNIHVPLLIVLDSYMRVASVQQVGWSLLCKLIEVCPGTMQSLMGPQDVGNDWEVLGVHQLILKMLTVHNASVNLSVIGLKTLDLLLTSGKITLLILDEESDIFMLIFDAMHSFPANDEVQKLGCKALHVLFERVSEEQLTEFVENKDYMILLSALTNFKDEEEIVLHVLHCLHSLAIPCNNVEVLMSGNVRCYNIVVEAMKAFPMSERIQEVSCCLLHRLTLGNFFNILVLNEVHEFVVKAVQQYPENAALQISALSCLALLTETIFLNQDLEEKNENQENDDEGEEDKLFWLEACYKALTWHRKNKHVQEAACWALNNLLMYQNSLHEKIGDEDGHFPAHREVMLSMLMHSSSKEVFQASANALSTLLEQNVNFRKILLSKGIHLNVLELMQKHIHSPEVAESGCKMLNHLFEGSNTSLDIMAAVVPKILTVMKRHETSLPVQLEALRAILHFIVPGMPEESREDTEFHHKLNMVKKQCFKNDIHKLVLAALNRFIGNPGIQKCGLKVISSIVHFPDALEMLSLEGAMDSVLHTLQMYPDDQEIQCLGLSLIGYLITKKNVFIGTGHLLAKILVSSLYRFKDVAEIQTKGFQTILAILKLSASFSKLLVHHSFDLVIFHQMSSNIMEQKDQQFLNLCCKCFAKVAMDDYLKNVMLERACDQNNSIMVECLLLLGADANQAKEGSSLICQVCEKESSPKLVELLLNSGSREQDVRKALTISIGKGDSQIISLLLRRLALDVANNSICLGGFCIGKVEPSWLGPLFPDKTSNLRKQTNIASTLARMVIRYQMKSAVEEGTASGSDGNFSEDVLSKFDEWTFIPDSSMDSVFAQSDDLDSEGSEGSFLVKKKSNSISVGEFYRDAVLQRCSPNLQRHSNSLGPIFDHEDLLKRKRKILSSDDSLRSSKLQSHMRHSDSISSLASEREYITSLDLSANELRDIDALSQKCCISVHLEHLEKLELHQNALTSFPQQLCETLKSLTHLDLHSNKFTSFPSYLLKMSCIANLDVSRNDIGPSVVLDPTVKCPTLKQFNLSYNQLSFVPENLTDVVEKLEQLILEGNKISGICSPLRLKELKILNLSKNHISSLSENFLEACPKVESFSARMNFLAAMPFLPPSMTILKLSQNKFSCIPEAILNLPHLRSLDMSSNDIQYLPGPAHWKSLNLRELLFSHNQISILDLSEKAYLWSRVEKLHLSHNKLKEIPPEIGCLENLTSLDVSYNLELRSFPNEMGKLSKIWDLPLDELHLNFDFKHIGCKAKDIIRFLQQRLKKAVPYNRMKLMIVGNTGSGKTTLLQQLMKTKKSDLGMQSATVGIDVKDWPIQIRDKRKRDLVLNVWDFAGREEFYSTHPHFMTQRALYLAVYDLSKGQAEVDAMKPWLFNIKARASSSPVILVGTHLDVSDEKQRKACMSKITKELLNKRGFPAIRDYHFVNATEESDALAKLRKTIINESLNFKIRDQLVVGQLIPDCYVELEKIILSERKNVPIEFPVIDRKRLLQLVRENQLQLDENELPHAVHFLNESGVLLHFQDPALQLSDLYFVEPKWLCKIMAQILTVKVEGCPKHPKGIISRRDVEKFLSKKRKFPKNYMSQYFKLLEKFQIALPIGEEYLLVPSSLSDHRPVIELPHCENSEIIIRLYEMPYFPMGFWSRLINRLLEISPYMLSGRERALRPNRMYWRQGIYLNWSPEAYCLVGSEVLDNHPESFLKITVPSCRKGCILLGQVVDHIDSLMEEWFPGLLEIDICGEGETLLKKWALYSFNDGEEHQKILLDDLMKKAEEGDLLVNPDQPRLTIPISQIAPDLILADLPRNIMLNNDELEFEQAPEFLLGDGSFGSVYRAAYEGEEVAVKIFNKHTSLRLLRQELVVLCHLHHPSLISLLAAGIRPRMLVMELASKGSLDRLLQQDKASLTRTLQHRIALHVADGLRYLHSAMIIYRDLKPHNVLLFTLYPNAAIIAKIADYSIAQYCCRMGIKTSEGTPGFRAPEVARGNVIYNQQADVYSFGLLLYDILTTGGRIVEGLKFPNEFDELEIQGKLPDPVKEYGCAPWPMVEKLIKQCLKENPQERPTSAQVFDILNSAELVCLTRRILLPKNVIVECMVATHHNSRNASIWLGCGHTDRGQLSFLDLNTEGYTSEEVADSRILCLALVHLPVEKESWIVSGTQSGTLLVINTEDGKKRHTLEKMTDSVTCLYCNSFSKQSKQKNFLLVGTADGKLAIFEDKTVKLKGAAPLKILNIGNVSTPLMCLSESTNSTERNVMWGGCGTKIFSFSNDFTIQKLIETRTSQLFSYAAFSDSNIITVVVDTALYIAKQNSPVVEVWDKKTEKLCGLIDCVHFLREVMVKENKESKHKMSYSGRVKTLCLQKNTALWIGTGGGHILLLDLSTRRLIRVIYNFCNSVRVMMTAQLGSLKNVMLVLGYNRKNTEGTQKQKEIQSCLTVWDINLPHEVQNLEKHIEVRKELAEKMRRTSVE

Row | SMILES | Ki
1 | CNc1nc(Nc2cc(C)c(C(=O)N3CCOCC3)cc2Cl)ncc1C(F)(F)F [Compound 2, [5-Chloro-2-methyl-4-(4-methylamino-5-trifluoromethyl-pyrimidin-2-ylamino)-phenyl]-morpholin-4-yl-methanone] | 7 nM
2 | CNc1nc(Nc2cc(F)c(C(=O)N(C)C3CCN(C)CC3)cc2OC)ncc1C(F)(F)F [Compound 7, 2-Fluoro-5-methoxy-N-methyl-4-(4-methylamino-5-trifluoromethyl-pyrimidin-2-ylamino)-N-(1-methyl-piperidin-4-yl)-benzamide] | 7.55 nM
3 | COc1nc(Nc2ccc(C(=O)N3CCOCC3)cc2O)ncc1Cl [Compound 9, [4-(5-Chloro-4-methoxy-pyrimidin-2-ylamino)-3-hydroxy-phenyl]-morpholin-4-yl-methanone] | 120 nM
4 | CNc1nc(Nc2cc(O)c(C(=O)N3CCOCC3)cc2Cl)ncc1C(F)(F)F [Compound 10, [5-Chloro-2-hydroxy-4-(4-methylamino-5-trifluoromethyl-pyrimidin-2-ylamino)-phenyl]-morpholin-4-yl-methanone] | 11.6 nM
5 | CNc1nc(Nc2ccc(C(=O)N3CCOCC3)c(F)c2F)ncc1C(F)(F)F [Compound 12, [2,3-Difluoro-4-(4-methylamino-5-trifluoromethyl-pyrimidin-2-ylamino)-phenyl]-morpholin-4-yl-methanone] | 13.5 nM
6 | CNc1nc(Nc2ccc(C(=O)N3CCOCC3)c(F)c2F)ncc1Cl [Compound 13, [4-(5-Chloro-4-methylamino-pyrimidin-2-ylamino)-2,3-difluoro-phenyl]-morpholin-4-yl-methanone] | 14.5 nM
7 | CNc1nc(Nc2cc(F)c(C(=O)N3CCOCC3)cc2F)ncc1C(F)(F)F [Compound 16, [2,5-Difluoro-4-(4-methylamino-5-trifluoromethyl-pyrimidin-2-ylamino)-phenyl]-morpholin-4-yl-methanone] | 24.2 nM
8 | CNc1nc(Nc2cc(F)c(C(=O)N3CCOCC3)cc2F)ncc1Cl [Compound 17, [4-(5-Chloro-4-methylamino-pyrimidin-2-ylamino)-2,5-difluoro-phenyl]-morpholin-4-yl-methanone] | 35.6 nM
9 | CNc1nc(Nc2ccc(C(=O)N3CCOCC3)cc2F)ncc1C(F)(F)F [Compound 22, [3-Fluoro-4-(4-methylamino-5-trifluoromethyl-pyrimidin-2-ylamino)-phenyl]-morpholin-4-yl-methanone] | 20.9 nM

The next lines start with the values.

Row | Ki | SMILES
10 | 6.67 nM | CNc1nc(Nc2cc(OC)c(C(=O)N3CCC(F)(F)C3)cc2Cl)ncc1C(F)(F)F [Compound 24, [5-Chloro-2-methoxy-4-(4-methylamino-5-trifluoromethyl-pyrimidin-2-ylamino)-phenyl]-(3,3-difluoro-pyrrolidin-1-yl)-methanone]
11 | 4.09 nM | CNc1nc(Nc2cc(OC)c(C(=O)N3CCN(C4COC4)CC3)cc2Cl)ncc1C(F)(F)F [Compound 23, [5-Chloro-2-methoxy-4-(4-methylamino-5-trifluoromethyl-pyrimidin-2-ylamino)-phenyl]-(4-oxetan-3-yl-piperazin-1-yl)-methanone]
12 | 4 nM | CNc1nc(Nc2cc(OC)c(C(=O)N3CCN(CCOC)CC3)cc2Cl)ncc1C(F)(F)F [Compound 1, [5-Chloro-2-methoxy-4-(4-methylamino-5-trifluoromethyl-pyrimidin-2-ylamino)-phenyl]-[4-(2-methoxy-ethyl)-piperazin-1-yl]-methanone]
13 | 3.41 nM | CNc1nc(Nc2cc(F)c(C(=O)N3CCN4CCCC4C3)cc2OC)ncc1C(F)(F)F (stereo not drawn) [Compound 4, [2-Fluoro-5-methoxy-4-(4-methylamino-5-trifluoromethyl-pyrimidin-2-ylamino)-phenyl]-(hexahydro-pyrrolo[1,2-a]pyrazin-2-yl)-methanone]
14 | 3.12 nM | CNc1nc(Nc2cc(OC)c(C(=O)N3CC(N4CCOCC4)C3)cc2Cl)ncc1C(F)(F)F [Compound 20, [5-Chloro-2-methoxy-4-(4-methylamino-5-trifluoromethyl-pyrimidin-2-ylamino)-phenyl]-(3-morpholin-4-yl-azetidin-1-yl)-methanone]
15 | 2.55 nM | CNc1nc(Nc2cc(OC)c(C(=O)N3C[C@@H]4C[C@H]3CO4)cc2Cl)ncc1C(F)(F)F [Compound 15, [5-Chloro-2-methoxy-4-(4-methylamino-5-trifluoromethyl-pyrimidin-2-ylamino)-phenyl]-(1S,4S)-2-oxa-5-aza-bicyclo[2.2.1]hept-5-yl-methanone]
16 | 2.1 nM | CNc1nc(Nc2cc(F)c(C(=O)N3C[C@@H]4C[C@H]3CO4)cc2OC)ncc1C(F)(F)F [Compound 11, [2-Fluoro-5-methoxy-4-(4-methylamino-5-trifluoromethyl-pyrimidin-2-ylamino)-phenyl]-(1S,4S)-2-oxa-5-aza-bicyclo[2.2.1]hept-5-yl-methanone]
17 | 1.94 nM | CCNc1nc(Nc2cc(F)c(C(=O)N(C)CC(C)(C)O)cc2OC)ncc1C(F)(F)F [Compound 19, 4-(4-Ethylamino-5-trifluoromethyl-pyrimidin-2-ylamino)-2-fluoro-N-(2-hydroxy-2-methyl-propyl)-5-methoxy-N-methyl-benzamide]
18 | 1.78 nM | CNc1nc(Nc2cc(F)c(C(=O)N3C[C@H]4CC[C@@H](C3)O4)cc2OC)ncc1C(F)(F)F [Compound 5, [2-Fluoro-5-methoxy-4-(4-methylamino-5-trifluoromethyl-pyrimidin-2-ylamino)-phenyl]-(1S,5R)-8-oxa-3-aza-bicyclo[3.2.1]oct-3-yl-methanone]
19 | 1.43 nM | CNc1nc(Nc2cc(C)c(C(=O)N3CCOCC3)cc2OC)ncc1C(F)(F)F [Compound 3, [5-Methoxy-2-methyl-4-(4-methylamino-5-trifluoromethyl-pyrimidin-2-ylamino)-phenyl]-morpholin-4-yl-methanone]
20 | 0.7 nM | CNc1nc(Nc2cc(F)c(C(=O)N3CCC(N4CCOCC4)CC3)cc2OC)ncc1C(F)(F)F [Compound 8, [2-Fluoro-5-methoxy-4-(4-methylamino-5-trifluoromethyl-pyrimidin-2-ylamino)-phenyl]-(4-morpholin-4-yl-piperidin-1-yl)-methanone]
21 | 0.59 nM | CCNc1nc(Nc2cc(F)c(C(=O)N3C[C@@H]4C[C@H]3CO4)cc2OC)ncc1C(F)(F)F [Compound 14, [4-(4-Ethylamino-5-trifluoromethyl-pyrimidin-2-ylamino)-2-fluoro-5-methoxy-phenyl]-(1S,4S)-2-oxa-5-aza-bicyclo[2.2.1]hept-5-yl-methanone]
22 | 0.501 nM | CCNc1nc(Nc2cc(F)c(C(=O)N3C[C@H]4CC[C@@H](C3)O4)cc2OC)ncc1C(F)(F)F [Compound 6, [4-(4-Ethylamino-5-trifluoromethyl-pyrimidin-2-ylamino)-2-fluoro-5-methoxy-phenyl]-(1S,5R)-8-oxa-3-aza-bicyclo[3.2.1]oct-3-yl-methanone]
23 | 0.429 nM | CCNc1nc(Nc2cc(F)c(C(=O)NCC(C)(C)O)cc2OC)ncc1C(F)(F)F [Compound 18, 4-(4-Ethylamino-5-trifluoromethyl-pyrimidin-2-ylamino)-2-fluoro-N-(2-hydroxy-2-methyl-propyl)-5-methoxy-benzamide]
24 | 0.371 nM | CCNc1nc(Nc2ccc(C(=O)NC(C)(C)C)cc2OC)ncc1C(F)(F)F [Compound 21, N-tert-Butyl-4-(4-ethylamino-5-trifluoromethyl-pyrimidin-2-ylamino)-3-methoxy-benzamide]

same assay, conditions: Table 6 compounds (formula II/III, fused ring)

Row | Ki | SMILES
25 | 0.31 nM | CNc1nc(Nc2cc(C)c(C(=O)N3CCOCC3)cc2Cl)ncc1C(F)(F)F [Compound 2, [5-Chloro-2-methyl-4-(4-methylamino-5-trifluoromethyl-pyrimidin-2-ylamino)-phenyl]-morpholin-4-yl-methanone]
26 | 1.08 nM | CNc1nc(Nc2cc(C)c(C(=O)N3CCOCC3)cc2OC)ncc1C(F)(F)F [Compound 3, [5-Methoxy-2-methyl-4-(4-methylamino-5-trifluoromethyl-pyrimidin-2-ylamino)-phenyl]-morpholin-4-yl-methanone]
27 | 0.636 nM | CCNc1nc(Nc2ccc(C(=O)N3CCC(F)(F)C3)c3c2OCCO3)ncc1C(F)(F)F [Compound 6]
